Reference: the supplement of paper PMC11368000

Key:
Settings in all cases: exposure time: 90 min
[1] = tested on: 30171 (donor line of iPSC-derived cardiomyocytes); assay: POD (EC10) for decrease in total cell number (cytotoxicity) vs vehicle; higher = less potent (higher point of departure)
Method in brief: (§1)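 In 384-well plates, cardiomyocytes made from iPSCs of 16 human donors were cultured for 14 days before a 90 min, 37 °C exposure to final concentrations of 0.1, 1, 10 and 100 µM with 0.5% DMSO. Per-field nuclear counts from MetaXpress, normalised to vehicle, were fitted with hierarchical Bayesian Hill models using a 10% decrease. These fits yielded a cytotoxicity point of departure for each donor.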

[2] = tested on: 1083 (donor line of iPSC-derived cardiomyocytes); assay: as above
Method in brief: as §1

[3] = tested on: 1531 (donor line of iPSC-derived cardiomyocytes); assay: as above
Method in brief: as §1

[4] = tested on: 20032 (donor line of iPSC-derived cardiomyocytes); assay: as above
Method in brief: as §1

[5] = tested on: 11235 (donor line of iPSC-derived cardiomyocytes); assay: as above
Method in brief: as §1

[6] = tested on: 1535 (donor line of iPSC-derived cardiomyocytes); assay: as above
Method in brief: as §1

[7] = tested on: 1516 (donor line of iPSC-derived cardiomyocytes); assay: as above
Method in brief: as §1

[8] = tested on: 1565 (donor line of iPSC-derived cardiomyocytes); assay: as above
Method in brief: as §1

[9] = tested on: 20084 (donor line of iPSC-derived cardiomyocytes); assay: as above
Method in brief: as §1

[10] = tested on: 1118 (donor line of iPSC-derived cardiomyocytes); assay: as above
Method in brief: as §1

[11] = tested on: 1309 (donor line of iPSC-derived cardiomyocytes); assay: as above
Method in brief: as §1

[12] = tested on: 1368 (donor line of iPSC-derived cardiomyocytes); assay: as above
Method in brief: as §1

[13] = tested on: 1083; assay: POD (EC05) for increase in Ca2+ transient decay-to-rise ratio (QT prolongation) vs vehicle; higher = less potent (higher point of departure)
Description: (§2)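 Human iPSC-derived cardiomyocytes from 16 donors were exposed for 90 min at 37 °C to each PFAS at 0.1, 1, 10 and 100 µM in 0.5% DMSO, 384-well plates. Kinetic Ca2+ flux (FLIPR) and Hoechst nuclei counts were normalised to vehicle wells and fitted with a hierarchical Bayesian Hill model to give donor-specific PODs: EC05 for beat-rate increase or decrease and for decay-to-rise ratio increase (QT proxy), EC95 for peak-frequency loss (asystole), EC10 for total cell number loss. 0.03 µM is the lower bound.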

[14] = tested on: 30145 (donor line of iPSC-derived cardiomyocytes); assay: as above
Description: as §2

[15] = tested on: 1392 (donor line of iPSC-derived cardiomyocytes); assay: as above
Description: as §2

[16] = tested on: 20032; assay: as above
Description: as §2

[17] = tested on: 1535; assay: as above
Description: as §2

[18] = tested on: 20084; assay: as above
Description: as §2

[19] = tested on: 1118; assay: as above
Description: as §2

[20] = tested on: 1309; assay: as above
Description: as §2

Measured: POD vs vehicle

NS(=O)(=O)C(F)(F)C(F)(F)C(F)(F)C(F)(F)C(F)(F)C(F)(F)F [Perfluorohexanesulfonamide]
14.9 µM: [10]
16.8 µM: [17]
30.8 µM: [13]
70.7 µM: [11]
61.1 µM: [7]
> 100 µM: all other assays above

O=C(O)C(F)(F)OC(F)(F)C(F)(F)OC(F)(F)F [Perfluoro-3,6-dioxaheptanoic_acid]
> 100 µM: all assays above

O=C(O)C(F)(F)C(F)(F)C(F)(F)C(F)(F)C(F)(F)C(F)(F)C(F)(F)C(F)(F)C(F)(F)F [Perfluorodecanoic_acid]
81.5 µM: [8]
5.59 µM: [4]
> 100 µM: all other assays above

O=S(=O)(O)C(F)(F)C(F)(F)C(F)(F)C(F)(F)F [Perfluorobutanesulfonic_acid]
> 100 µM: all assays above

OCCC(F)(F)C(F)(F)C(F)(F)C(F)(F)F [4:2 Fluorotelomer alcohol]
not listed: [1]
> 100 µM: all other assays above

O=C(O)C(F)(F)C(F)(F)C(F)(F)C(F)(F)C(F)(F)C(F)(F)C(F)(F)C(F)(F)Cl [9-Chloro-perfluorononanoic_acid]
56.2 µM: [7]
30.5 µM: [1]
> 100 µM: all other assays above

O=C(O)C(F)(F)C(F)(F)C(F)F [2,2,3,3,4,4-Hexafluorobutanoic_acid]
0.125 µM: [1]
> 100 µM: all other assays above

O=C(O)C(F)(F)C(F)(F)C(F)(F)C(F)(F)C(F)(F)C(F)(F)C(F)(F)C(F)(F)F [Perfluorononanoic_acid]
> 100 µM: all assays above

O=S(=O)(O)C(F)(F)C(F)(F)C(F)(F)C(F)(F)C(F)(F)C(F)(F)F [Perfluorohexanesulfonic_acid]
> 100 µM: all assays above

O=C(O)C(F)(F)OC(F)(F)C(F)(F)OC(F)(F)C(F)(F)OC(F)(F)C(F)(F)C(F)(F)C(F)(F)F [Perfluoro-3,6,9-trioxatridecanoic_acid]
55.4 µM: [7]
59.5 µM: [1]
> 100 µM: all other assays above

O=C(O)C(F)(F)C(F)(F)C(F)(F)C(F)(F)C(=O)O [Octafluoroadipic_acid]
not listed: [4] | [8]
> 100 µM: all other assays above

CC(O)C(F)(F)C(F)(F)F (centres undefined) [1-Pentafluoroethylethanol]
> 100 µM: all assays above

O=C(O)C(F)(F)C(F)(F)C(F)(F)C(F)(F)F [Perfluoropentanoic_acid]
> 100 µM: all assays above

NC(=O)C(F)(F)C(F)(F)C(F)(F)C(F)(F)C(F)(F)C(F)(F)C(F)(F)F [Perfluorooctanamide]
not listed: [16] | [18]
> 100 µM: all other assays above

OCC(F)(F)OC(F)(F)C(F)(F)OC(F)(F)C(F)(F)OC(F)(F)F [Fluorinated_triethylene_glycol_monomethyl_ether]
65.6 µM: [11]
0.358 µM: [9]
not listed: [3] | [4]
> 100 µM: all other assays above

OCC(F)(F)C(F)(F)C(F)(F)C(F)(F)C(F)(F)C(F)(F)F [6:1 Fluorotelomer alcohol]
1.53 µM: [10]
98.6 µM: [11]
not listed: [7]
> 100 µM: all other assays above

N=C(N)C(F)(F)C(F)(F)C(F)(F)C(F)(F)C(F)(F)C(F)(F)C(F)(F)F [Perfluorooctanamidine]
0.145 µM: [18]
not listed: [16]
> 100 µM: all other assays above

NC(=O)C(F)(F)C(F)(F)C(F)(F)F [Heptafluorobutyramide]
not listed: [16]
> 100 µM: all other assays above

O=C(O)C(F)(F)C(F)(F)C(F)(F)C(F)(F)C(F)(F)C(F)(F)F [Perfluoroheptanoic_acid]
56.8 µM: [9]
not listed: [7]
> 100 µM: all other assays above
